The values that follow are results of earlier work, collected in patent US20060008806A1, “Method for producing novel DNA sequence with biological activity” (University of Washington, priority 1986, published 2006).

The subject of the data set is β-lactamases. Particulars: Labia, et al., 1979.
Turning to `CC1(C)S[C@@H]2[C@H](NC(=O)[C@H](N)c3ccccc3)C(=O)N2[C@H]1C(=O)O` [ampicillin], the Km is 31 µM.

As for `CC1(C)S[C@@H]2[C@H](NC(=O)Cc3ccccc3)C(=O)N2[C@H]1C(=O)O` [benzylpenicillin], the Km was 21 µM.

With `CC1(C)S[C@@H]2[C@H](NC(=O)C(C(=O)O)c3ccccc3)C(=O)N2[C@H]1C(=O)O` (stereo partly drawn) [carbenicillin], the Km was 10 µM.

The term Km denotes the concentration of substrate that gives half-maximal velocity.
